# Reference: patent US20090270407A1, “FUNGICIDAL ISOXAZOLIDINES” (E. I. DU PONT DE NEMOURS AND COMPANY, priority 2008, published 2009)
# Where two headings read alike, the source gives them in different places. Marks after values point to notes of the source that are not given here.
# What was measured:
# Settings in all cases: 100 = 100 % disease control, 0 = no disease control relative to controls
# [1] = test system: Erysiphe graminis f. sp. tritici; assay: Test A: wheat powdery mildew, preventive spray on wheat seedlings, visual disease rating
# From the text: (§1) General protocol for preparing test suspensions for Tests A-I: The test compounds were first dissolved in acetone in an amount equal to 3% of the final volume and then suspended at the desired concentration (in ppm) in acetone and purified water (50/50 mix) containing 250 ppm of the surfactant Trem® 014 (polyhydric alcohol esters). The resulting test suspensions were then used in Tests A-I. Spraying a 200 ppm test suspension to the point of run-off on the test plants was the equivalent of a rate of 500 g/ha. (An asterisk “*” next to the rating value indicates a 40 ppm test suspension.)
# The test suspension was sprayed to the point of run-off on wheat seedlings. The following day the seedlings were inoculated with a spore dust of Erysiphe graminis f. sp. tritici (the causal agent of wheat powdery mildew) and incubated in a growth chamber at 20° C. for 8 days, after which time visual disease ratings were made.
# [2] = test system: Puccinia recondita f. sp. tritici; assay: Test B: wheat leaf rust, preventive spray on wheat seedlings, visual disease rating
# [3] = test system: Septoria nodorum; assay: Test C: wheat glume blotch, preventive spray on wheat seedlings, visual disease rating
# [4] = test system: Plasmopara viticola; assay: Test I: grape downy mildew, spray on grape seedlings after inoculation, visual disease rating
# From the text: as §1
# Grape seedlings were inoculated with a spore suspension of Plasmopara viticola (the causal agent of grape downy mildew) and incubated in a saturated atmosphere at 20° C. for 24 h. After a short drying period, the test suspension was sprayed to the point of run-off on the grape seedlings and then moved to a growth chamber at 20° C. for 6 days, after which time the test units were placed back into a saturated atmosphere at 20° C. for 24 h. Upon removal, visual disease ratings were made.
# All results are for 200 ppm except where followed by “*” which indicates 40 ppm.
# [5] = test system: Phytophthora infestans; type: in vivo
# [6] = test system: Botrytis cinerea; assay: Test E: tomato Botrytis, preventive spray on tomato seedlings, visual disease rating
# [7] = test system: Rhizoctonia oryzae; assay: Test G: turf brown patch, preventive spray on creeping bent grass seedlings, visual disease rating
# Method: The test suspension was sprayed to the point of run-off on creeping bent grass seedlings. The following day the seedlings were inoculated with a spore suspension of Rhizoctonia oryzae (the causal agent of turf brown patch) and incubated in a saturated atmosphere at 27° C. for 48 h, and then moved to a growth chamber at 27° C. for 3 days, after which time visual disease ratings were made.
# A dash (−) indicates no test results. All results are for 200 ppm except where followed by “*” which indicates 40 ppm.
# [8] = test system: Alternaria solani; assay: Test F: tomato early blight, preventive spray on tomato seedlings, visual disease rating
# [9] = test system: Septoria tritici; assay: Test D: wheat leaf blotch, preventive spray on wheat seedlings, visual disease rating; type: in vivo
# From the text: A dash (−) indicates no test results.
compound,measurement,setting,value
CN1OC(C)(c2cccnc2)CC1c1ccc(-c2ccc(OC(F)(F)F)cc2)cc1 (racemic) [Compound 18],Test A disease control rating,[1]; 40 ppm (marked *),0* %
same,Test B disease control rating,[2]; 40 ppm (marked *),0* %
same,Test C disease control rating,[3]; 40 ppm (marked *),0* %
same,Test I disease control rating,[4]; 40 ppm (marked *),0* %
same,Test H disease control rating,[5]; 40 ppm (marked *),0* %
same,Test E disease control rating,[6]; 40 ppm (marked *),0* %
same,Test G disease control rating,[7]; 40 ppm (marked *),0* %
same,Test F disease control rating,[8]; 40 ppm (marked *),7* %
same,Test D disease control rating,[9]; 40 ppm (marked *),58* %
CN1OC(C)(c2cccnc2)CC1c1ccc(Oc2ccc(F)cc2)cc1 (racemic) [Compound 19],Test A disease control rating,[1]; 200 ppm,98%
same,Test B disease control rating,[2]; 200 ppm,91%
same,Test C disease control rating,[3]; 200 ppm,99%
same,Test I disease control rating,[4]; 200 ppm,0%
same,Test H disease control rating,[5]; 200 ppm,0%
same,Test E disease control rating,[6]; 200 ppm,98%
same,Test G disease control rating,[7]; 200 ppm,0%
same,Test F disease control rating,[8]; 200 ppm,7%
same,Test D disease control rating,[9]; 200 ppm,98%
CN1OC(C)(c2cccnc2)CC1c1ccc(Oc2ccc(F)cc2)cc1 (racemic) [Compound 20],Test A disease control rating,[1]; 200 ppm,91%
same,Test B disease control rating,[2]; 200 ppm,92%
same,Test C disease control rating,[3]; 200 ppm,78%
same,Test I disease control rating,[4]; 200 ppm,0%
same,Test H disease control rating,[5]; 200 ppm,0%
same,Test E disease control rating,[6]; 200 ppm,0%
same,Test G disease control rating,[7]; 200 ppm,0%
same,Test F disease control rating,[8]; 200 ppm,0%
same,Test D disease control rating,[9]; 200 ppm,92%
CN1OC(c2cccnc2)(C(F)(F)F)CC1c1ccc(-c2ccccc2)cc1 (racemic) [Compound 23],Test A disease control rating,[1]; 200 ppm,99%
same,Test B disease control rating,[2]; 200 ppm,0%
same,Test C disease control rating,[3]; 200 ppm,97%
same,Test I disease control rating,[4]; 200 ppm,0%
same,Test H disease control rating,[5]; 200 ppm,0%
same,Test E disease control rating,[6]; 200 ppm,0%
same,Test G disease control rating,[7]; 200 ppm,0%
same,Test F disease control rating,[8]; 200 ppm,4%
same,Test D disease control rating,[9]; 200 ppm,98%
CN1OC(c2cccnc2)(C(F)(F)F)CC1c1ccc(-c2ccccc2)cc1 (racemic) [Compound 24],Test A disease control rating,[1]; 200 ppm,99%
same,Test B disease control rating,[2]; 200 ppm,45%
same,Test C disease control rating,[3]; 200 ppm,0%
same,Test I disease control rating,[4]; 200 ppm,0%
same,Test H disease control rating,[5]; 200 ppm,0%
same,Test E disease control rating,[6]; 200 ppm,0%
same,Test G disease control rating,[7]; 200 ppm,0%
same,Test F disease control rating,[8]; 200 ppm,0%
same,Test D disease control rating,[9]; 200 ppm,100%
Cc1ccc(-c2ccc(C3CC(c4cccnc4)(C(F)(F)F)ON3C)cc2)cc1 (racemic) [Compound 25],Test A disease control rating,[1]; 40 ppm (marked *),100* %
same,Test B disease control rating,[2]; 40 ppm (marked *),0* %
same,Test C disease control rating,[3]; 40 ppm (marked *),0* %
same,Test I disease control rating,[4]; 40 ppm (marked *),0* %
same,Test H disease control rating,[5]; 40 ppm (marked *),0* %
same,Test E disease control rating,[6]; 40 ppm (marked *),71* %
same,Test G disease control rating,[7]; 40 ppm (marked *),0* %
same,Test F disease control rating,[8]; 40 ppm (marked *),0* %
same,Test D disease control rating,[9]; 40 ppm (marked *),86* %
Cc1ccc(-c2ccc(C3CC(c4cccnc4)(C(F)(F)F)ON3C)cc2)cc1 (racemic) [Compound 26],Test A disease control rating,[1]; 40 ppm (marked *),96* %
same,Test B disease control rating,[2]; 40 ppm (marked *),0* %
same,Test C disease control rating,[3]; 40 ppm (marked *),0* %
same,Test I disease control rating,[4]; 40 ppm (marked *),0* %
same,Test H disease control rating,[5]; 40 ppm (marked *),0* %
same,Test E disease control rating,[6]; 40 ppm (marked *),0* %
same,Test G disease control rating,[7]; 40 ppm (marked *),0* %
same,Test F disease control rating,[8]; 40 ppm (marked *),0* %
same,Test D disease control rating,[9]; 40 ppm (marked *),75* %
CN1OC(c2cccnc2)(C(F)(F)F)CC1c1ccc(Br)cc1 (racemic) [Compound 29],Test A disease control rating,[1]; 40 ppm (marked *),98* %
same,Test B disease control rating,[2]; 40 ppm (marked *),0* %
same,Test C disease control rating,[3]; 40 ppm (marked *),67* %
same,Test I disease control rating,[4]; 40 ppm (marked *),0* %
same,Test H disease control rating,[5]; 40 ppm (marked *),0* %
same,Test E disease control rating,[6]; 40 ppm (marked *),0* %
same,Test G disease control rating,[7]; 40 ppm (marked *),0* %
same,Test F disease control rating,[8]; 40 ppm (marked *),83* %
same,Test D disease control rating,[9]; 40 ppm (marked *),76* %
CN1OC(c2cccnc2)(C(F)(F)F)CC1c1ccc(Br)cc1 (racemic) [Compound 30],Test A disease control rating,[1]; 200 ppm,100%
same,Test B disease control rating,[2]; 200 ppm,89%
same,Test C disease control rating,[3]; 200 ppm,92%
same,Test I disease control rating,[4]; 200 ppm,58%
same,Test H disease control rating,[5]; 200 ppm,0%
same,Test E disease control rating,[6]; 200 ppm,0%
same,Test G disease control rating,[7]; 200 ppm,0%
same,Test F disease control rating,[8]; 200 ppm,0%
same,Test D disease control rating,[9]; 200 ppm,83%
Cc1cccc(-c2ccc(C3CC(c4cccnc4)(C(F)(F)F)ON3C)cc2)c1C (racemic) [Compound 31],Test A disease control rating,[1]; 40 ppm (marked *),98* %
same,Test B disease control rating,[2]; 200 ppm,0%
same,Test C disease control rating,[3]; 40 ppm (marked *),0* %
same,Test I disease control rating,[4]; 200 ppm,0%
same,Test H disease control rating,[5]; 40 ppm (marked *),0* %
same,Test E disease control rating,[6]; 40 ppm (marked *),0* %
same,Test G disease control rating,[7]; 40 ppm (marked *),0* %
same,Test F disease control rating,[8]; 40 ppm (marked *),0* %
same,Test D disease control rating,[9]; 40 ppm (marked *),50* %
Cc1cccc(-c2ccc(C3CC(c4cccnc4)(C(F)(F)F)ON3C)cc2)c1C (racemic) [Compound 32],Test A disease control rating,[1]; 200 ppm,97%
same,Test B disease control rating,[2]; 200 ppm,0%
same,Test C disease control rating,[3]; 200 ppm,0%
same,Test I disease control rating,[4]; 200 ppm,9%
same,Test H disease control rating,[5]; 200 ppm,0%
same,Test E disease control rating,[6]; 200 ppm,0%
same,Test G disease control rating,[7]; 200 ppm,0%
same,Test F disease control rating,[8]; 200 ppm,0%
same,Test D disease control rating,[9]; 200 ppm,85%
"CN1O[C@](C)(c2cccnc2)C[C@@H]1c1ccc(Cl)cc1 (relative stereo) [Compound 1, rel-3-[(3R,5S)-3-(4-chlorophenyl)-2,5-dimethyl-5-isoxazolidinyl]pyridine]",Test A disease control rating,[1]; 200 ppm,97%
same,Test B disease control rating,[2]; 200 ppm,0%
same,Test C disease control rating,[3]; 200 ppm,100%
same,Test I disease control rating,[4]; 200 ppm,0%
same,Test H disease control rating,[5]; 200 ppm,0%
same,Test E disease control rating,[6]; 200 ppm,83%
same,Test G disease control rating,[7]; 200 ppm,0%
same,Test F disease control rating,[8]; 200 ppm,0%
"CN1O[C@@](C)(c2cccnc2)C[C@@H]1c1ccc(Cl)cc1 (relative stereo) [Compound 2, rel-3-[(3R,5R)-3-(4-chlorophenyl)-2,5-dimethyl-5-isoxazolidinyl]pyridine]",Test A disease control rating,[1]; 200 ppm,72%
same,Test B disease control rating,[2]; 200 ppm,0%
same,Test C disease control rating,[3]; 200 ppm,99%
same,Test I disease control rating,[4]; 200 ppm,17%
same,Test H disease control rating,[5]; 200 ppm,0%
same,Test E disease control rating,[6]; 200 ppm,0%
same,Test G disease control rating,[7]; 200 ppm,0%
same,Test F disease control rating,[8]; 200 ppm,0%
"CN1O[C@](C)(c2cnccn2)C[C@@H]1c1ccc(-c2ccccc2)cc1 (relative stereo) [Compound 21, rel-2-[(3R,5S)-3-[1,1′-biphenyl]-4-yl-2,5-dimethyl-5-isoxazolidinyl]pyrazine]",Test A disease control rating,[1]; 40 ppm (marked *),97* %
same,Test B disease control rating,[2]; 40 ppm (marked *),0* %
same,Test C disease control rating,[3]; 40 ppm (marked *),0* %
same,Test I disease control rating,[4]; 40 ppm (marked *),0* %
same,Test H disease control rating,[5]; 40 ppm (marked *),0* %
same,Test E disease control rating,[6]; 40 ppm (marked *),0* %
same,Test G disease control rating,[7]; 40 ppm (marked *),0* %
same,Test F disease control rating,[8]; 40 ppm (marked *),62* %
same,Test D disease control rating,[9]; 40 ppm (marked *),95* %
CN1OC(C)(c2cccnc2)CC1c1ccc(Cl)c(Cl)c1 (centres unmarked) [Compound 5],Test A disease control rating,[1]; 200 ppm,98%
same,Test B disease control rating,[2]; 200 ppm,0%
same,Test C disease control rating,[3]; 200 ppm,0%
same,Test I disease control rating,[4]; 200 ppm,0%
same,Test H disease control rating,[5]; 200 ppm,0%
same,Test E disease control rating,[6]; 200 ppm,91%
same,Test G disease control rating,[7]; 200 ppm,0%
same,Test F disease control rating,[8]; 200 ppm,51%
CN1OC(C)(c2cccnc2)CC1c1ccc(Cl)c(Cl)c1 (centres unmarked) [Compound 6],Test A disease control rating,[1]; 200 ppm,99%
same,Test B disease control rating,[2]; 200 ppm,0%
same,Test C disease control rating,[3]; 200 ppm,0%
same,Test I disease control rating,[4]; 200 ppm,17%
same,Test H disease control rating,[5]; 200 ppm,0%
same,Test E disease control rating,[6]; 200 ppm,0%
same,Test G disease control rating,[7]; 200 ppm,0%
same,Test F disease control rating,[8]; 200 ppm,0%
